Ten compounds from patent US10017481B2, “Conformationally constrained, fully synthetic macrocyclic compounds” (POLYPHOR AG, priority 2012, dated 2018) can be followed below.

Values after ≈ are worked out from the molar mass of the structure shown. Read-outs that look alike come from different tables or passages of the source. Some results are limits rather than exact numbers.

Test [1] has as its target T1, Human recombinant cathepsin S (Homo sapiens, UniProt P25774).
T1 construct: host or cells: murine myeloma NS0 cells
Put plainly: Cathepsin S (CatS) enzyme assay. Type of test: biochemical. On the procedure: 2. Enzyme Assays for the Peptidase Endothelin Converting Enzyme-1 (ECE-1) and for the Cysteine Protease Cathepsin S (CatS)
The assays were performed according to provider's (Ricerca Biosciences, LLC) protocols which in turn are based on literature procedures (for ECE-1 cf.: O. Valdenaire et al., Eur. J. Biochem. 1999, 264, 341-349; F. D. Russell, A. P. Davenport, Circ. Res. 1999, 84, 891-896; and for CatS: G P Shi et al., J. Biol. Chem. 1992, 267, 7258-62; D Brömme et al., J. Biol. Chem. 1993 268, 4832-4838.).
Human recombinant cathepsin S expressed in a murine myeloma NS0 cells is used. Test compound and/or vehicle is preincubated with 0.1 μg/ml enzyme in modified acetate buffer pH 4.5 for 15 minutes at 25° C. The reaction is initiated by addition of […] Z-Leu-Arg-AMC for another 30 minutes' incubation period. Determination of the amount of AMC formed is read spectrofluorimetrically at 360 nm/465 nm. […]
IC50 values were determined by a non-linear, least squares regression analysis using MathIQ™ (ID Business Solutions Ltd., UK). Inhibition constants K were calculated according to the equation of Cheng and Prusoff (Y. Cheng, W. H. Prusoff, Biochem. Pharmacol. 1973, 22, 3099-3108) using the observed IC50 of the tested compound, the concentration of radioligand employed in the assay, and the historical values for the KD of the ligand. The Hill coefficient (nH), defining the slope of the competitive binding curve, was calculated using MathIQ™.

The target in test [2] is T2, Oxytocin receptor (OT receptor) (Homo sapiens, UniProt P30559).
T2 construct: expressed in transfected cells; host or cells: Ca2+ optimized hematopoietic cell lines (rat)
T2 sequence (P30559 1-389): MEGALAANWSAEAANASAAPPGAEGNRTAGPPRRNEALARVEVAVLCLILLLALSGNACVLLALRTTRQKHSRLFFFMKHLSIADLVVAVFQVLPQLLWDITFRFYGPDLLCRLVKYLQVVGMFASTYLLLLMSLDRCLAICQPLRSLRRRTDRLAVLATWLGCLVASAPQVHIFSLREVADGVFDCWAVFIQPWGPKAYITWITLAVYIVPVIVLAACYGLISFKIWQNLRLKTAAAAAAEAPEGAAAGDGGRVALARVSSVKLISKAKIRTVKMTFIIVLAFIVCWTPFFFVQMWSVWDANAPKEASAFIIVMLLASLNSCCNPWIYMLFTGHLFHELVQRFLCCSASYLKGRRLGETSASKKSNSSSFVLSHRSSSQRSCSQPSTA
Put plainly: Ca2+ flux (FLIPR) assay, OT receptor, agonist/antagonist mode. Type of test: cell-based. Particulars: antagonist mode. On the procedure: Biological and Pharmacological Methods 1. Ca^2+ Flux Assays for the GPCRs Oxytocin Receptor (OT Receptor), Thyrotropin-Releasing Hormone Receptor (TRH Receptor) and Bombesin Receptor Subtype 3 (BB3 Receptor)
Assays were performed on a FLIPR^TETRA fluorometric imaging plate reader (Molecular Devices) with ScreenWorks Version 2 (Molecular Devices) as device operating and data analysis software.
Dose dependent agonist and antagonist activities were determined. Percentage activation and percentage inhibition values were determined.
Percentage activation was determined upon initial addition of the sample compounds followed by 10 minutes' incubation at 25° C. Following compound incubation, reference agonists were added at EC80 to determine percentage inhibition.
Reference agonists were purchased from reputable commercial vendors and prepared according to each ligand's specifications. All handling of ligands were done to ensure proper control throughout the experiments.
Example compounds were weighed on a Microbalance (Mettler MX5) and dissolved in 100% DMSO to a final concentration of 2.5 mM and subsequently diluted into the assay buffer.
The assay buffer was a supplemented HBSS (Hank's Balanced Salt Solution). HBSS was supplemented with 20 mM HEPES (4-(2-hydroxyethyl)-piperazin-1-ethansulfonic acid) and 2.5 mM Probenecid (Sigma P8761).
GPCR assays were performed using Ca^2+ optimized hematopoietic cell lines (rat) with cultures never exceeding 90% confluency. Cells were harvested and seeded (from cultures at less than 90% confluency) at 50000 cells/well for a 96-well plate (12500 cells/well for 384). After seeding, the assay plates were incubated for 45 minutes at room temperature. After room temperature incubation, the assay plates were incubated at 37° C. 5% CO2 for 24 hours prior to assaying.
All GPCR assays were performed using Fluo-8 Ca^2+ dye.
Ca^2+ dye was prepared at 1× dye concentration in GPCR assay buffer. After 24 hours of incubation, cells were washed with GPCR assay buffer, and then Ca^2+-dye (100 μL/well) was added.
The plates were incubated for 90 minutes at 30° C. 5% CO2 prior to FLIPR assay.
Compound plates were prepared to add 50 μL/well during the agonist assay mode. During the FLIPR assay, 50 μL/well from the compound plate was diluted 3-fold into the existing 100 μL/well from the dye loading step. Therefore all compounds were prepared as 3× the final concentration desired in the assay.
After completion of the first single addition assay run, assay plate was removed from the FLIPR Tetra and placed at 25° C. for 7 minutes before antagonist assay.
Using the EC80 values determined during the agonist assay, all pre-incubated sample compound and reference antagonist (if applicable) wells were stimulated at the EC80 of the reference agonist. As reference ligands for these assays their obvious natural ligands oxytocin (OT), thyrotropin-releasing hormone (TRH) and bombesin (6-14) [BN(6-14)] were used.
After the addition of the reference agonist fluorescence was monitored for 180 sec using FLIPR Tetra.
From the FLIPR data, with negative control correction enabled, the maximum statistic for each well was exported and percentage activation relative to Emax control was calculated.
In general terms: A change in cytosolic calcium serves as a functional read-out for many receptors and channels.

Test [3] deals with S. pneumoniae DSM 20566 11A11, 3313A6, 704CG4B21, 82BERG72. Put plainly: Antimicrobial assay, broth microdilution MIC, S. pneumoniae strains. Particulars: Streptococcus pneumoniae, DSM20566; strain DSM 20566 (Table 32.7); read-out: MIC S. pneumoniae DSM 20566. The format is cell-based. On the procedure:
(§1) The antimicrobial activities of the compounds were determined in 96-well plates (Greiner, polystyrene) by the standard NCCLS broth microdilution method (National Committee for Clinical Laboratory Standards 1993. Methods for dilution antimicrobial susceptibility tests for bacteria that grow aerobically, 3rd ed. Approved standard M7-A6. National Committee for Clinical laboratory standards, Wayne, Pa.) with slight modifications. Inocula of the microorganisms were diluted into Mueller-Hinton II (MH, cation adjusted) broth+0.002% P-80 and compared with a 0.5 McFarland standard to give appr. 10^6 colony forming units (CFU)/mL. Aliquots (50 μl) of inoculate were added to 50 μl of MH broth+0.002% P-80 containing the compounds in serial two-fold dilutions. The following microorganisms were used to determine antibiotic selectivity of the compounds: S. pneumoniae DSM 20566 11A11, 3313A6, 704CG4B21, 82BERG72; S. aureus ATCC 29213, ATCC 25923, DSM 11729, DSM 46320, S. aureus 39. Antimicrobial activities of the compounds were expressed as the minimal inhibitory concentration (MIC) in μg/mL at which no visible growth was observed after 18-20 hours of incubation at 36° C.
(Broth dilution looks for growth in wells or tubes with falling amounts of substance.)

Test [4] deals with S. aureus ATCC 29213, ATCC 25923, DSM 11729, DSM 46320, S. aureus 39. Put plainly: Antimicrobial assay, broth microdilution MIC, S. aureus strains. Type of test: cell-based. Particulars: Staphylococcus aureus. The procedure: as §1
Where [5] appears, read: strain ATCC 25923, read-out: MIC S. aureus ATCC 25923.
Setting [6] is: strain ATCC 29213, read-out: MIC S. aureus ATCC 29213.
The mark [7] stands for this setting: strain DSM 11729, read-out: MIC S. aureus DSM 11729.
The mark [8] stands for this setting: strain S. aureus 39, read-out: MIC S. aureus 39.

What is called inhibition is the change of the read-out against control, counted positive when it falls. As a reminder, the IC50 is the point on the concentration scale where inhibition reaches its midpoint. As a reminder, the MIC is the smallest concentration in the dilution series that meets the test's criterion for growth inhibition. The % Inhibition is the share of the control response that was lost under treatment.

T1 sequence (P25774 115-331): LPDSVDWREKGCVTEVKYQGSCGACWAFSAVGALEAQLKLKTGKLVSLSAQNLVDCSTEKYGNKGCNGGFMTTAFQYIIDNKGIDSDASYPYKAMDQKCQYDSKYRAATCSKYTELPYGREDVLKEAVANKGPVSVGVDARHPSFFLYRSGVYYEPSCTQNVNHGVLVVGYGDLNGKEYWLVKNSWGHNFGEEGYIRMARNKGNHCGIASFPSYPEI

With `CCCC(=O)N[C@H]1CCCN(C)C(=O)c2cccc(c2)-c2ccccc2OC[C@@H]2C[C@H](NC(=O)Cc3ccc4ccccc4c3)CN2C1=O` [Ex. 27, N-[(10S,12S,16S)-20-methyl-12-{[2-(2-naphthyl)acetyl]amino)-15,21-dioxo-8-oxa-14,20-diazatetracyclo[20.3.1.0^2,7.0^10,14]hexacosa-1(26),2,4,6,22,24-hexaen-16-yl]butanamide], the inhibition at 10 µM in test [1] (10 μM compound) came to 50%.

In test [2], `CN1CCNC(=O)c2cncc(c2)-c2cccc(c2)OC[C@@H]2C[C@@H](NS(=O)(=O)c3ccccc3)CN2C(=O)C1` [Ex. 103, N-[(9S,11R)-16-methyl-14,20-dioxo-7-oxa-13,16,19,23-tetraazatetracyclo[19.3.1.1^2,6.0^9,13]hexacosa-1(25),2(26),3,5,21,23-hexaen-11-yl]benzenesulfonamide] came in with an IC50 of 6.9 µM. This compound also displayed an inhibition at 10 µM in test [2] (10 μM) of 77%.

On to `CC(C)(C)OC(=O)N[C@H]1C[C@H]2COc3cccc(c3)-c3ccccc3C(=O)NCC[C@@H](N)C(=O)N2C1` [Ex. 2, tert-butyl N-[(12R,16S,18S)-12-amino-8,13-dioxo-20-oxa-9,14-diazatetracyclo[19.3.1.0^2,7.0^14,18]pentacosa-1(25),2,4,6,21,23-hexaen-16-yl]carbamate], for which the MIC is 8 µg/mL (≈ 16.2 µM) in test [3]; 16 µg/mL (≈ 32.3 µM) in test [4] (setting [5]); 8 to 16 µg/mL (≈ 16.2 to 32.3 µM) in test [4] (setting [6]); 8 to 16 µg/mL (≈ 16.2 to 32.3 µM) in test [4] (setting [7]); 4 µg/mL (≈ 8.09 µM) in test [4] (setting [8]).

Take `CN1CCNC(=O)c2cncc(c2)-c2cccc(c2)OC[C@@H]2C[C@@H](NC(=O)Cc3cccc4ccccc34)CN2C(=O)C1` [Ex. 101, N-[(9S,11R)-16-methyl-14,20-dioxo-7-oxa-13,16,19,23-tetraazatetracyclo[19.3.1.1^2,6.0^9,13]hexacosa-1(25),2(26),3,5,21,23-hexaen-11-yl]-2-(1-naphthyl) acetamide]: the IC50 in test [2] worked out at 2.6 µM. The “Antagonist activity % Inhibition at 10 μM” value in test [2] (10 μM) was determined as 69%.

`CN(C)CC(=O)N[C@H]1CCCN(C)C(=O)c2cccc(c2)-c2ccccc2OC[C@@H]2C[C@H](NC(=O)Cc3ccc4ccccc4c3)CN2C1=O` [Ex. 20, 2-(dimethylamino)-N-[(10S,12S,16S)-20-methyl-12-{[2-(2-naphthyl)acetyl]amino}-15,21-dioxo-8-oxa-14,20-diazatetracyclo[20.3.1.0^2,7.0^10,14]hexacosa-1(26),2,4,6,22,24-hexaen-16-yl]acetamide]: the IC50 in test [1] was 14.7 µM. Besides, the inhibition at 10 µM in test [1] (10 μM compound) was 45%.

On to `CCCCC(=O)N[C@H]1CCCN(C)C(=O)c2cccc(c2)-c2ccccc2OC[C@@H]2C[C@H](NC(=O)Cc3ccc4ccccc4c3)CN2C1=O` [Ex. 28, N-[(10S,12S,16S)-20-methyl-12-{[2-(2-naphthyl)acetyl]amino}-15,21-dioxo-8-oxa-14,20-diazatetracyclo[20.3.1.0^2,7.0^10,14]hexacosa-1(26),2,4,6,22,24-hexaen-16-yl]pentanamide], for which the inhibition at 10 µM in test [1] (10 μM compound) worked out at 57%.

Consider `CC(C)CC(=O)N[C@H]1CCCN(C)C(=O)c2cccc(c2)-c2ccccc2OC[C@@H]2C[C@H](NC(=O)Cc3ccc4ccccc4c3)CN2C1=O` [Ex. 24, 3-methyl-N-[(10S,12S,16S)-20-methyl-12-{[2-(2-naphthyl)acetyl]amino}-15,21-dioxo-8-14,20-diazatetracyclo[20.3.1.0^2,7.0^10,14]hexacosa-1(26),2,4,6,22,24-hexaen-16-yl]butanamide], for which the “% Inhibition at 10 μM” value in test [1] (10 μM compound) came out at 55%.

`CN1CCNC(=O)c2cncc(c2)-c2cccc(c2)OC[C@@H]2C[C@@H](NC(=O)Cc3ccc4ccccc4c3)CN2C(=O)C1` [Ex. 96, N-[(9S,11R)-16-methyl-14,20-dioxo-7-oxa-13,16,19,23-tetraazatetracyclo[19.3.1.1^2,6.0^9,13]hexacosa-1(25),2(26),3,5,21,23-hexaen-11-yl]-2-(2-naphthyl) acetamide] gave an IC50 in test [2] of 1.2 µM. In addition, at 10 µM the inhibition in test [2] (10 μM) was 60%.

As for `CC(C)(C)OC(=O)N[C@@H]1C[C@H]2COc3cccc(c3)-c3cncc(c3)C(=O)NCCNCC(=O)N2C1` [Ex. 91, tert-butyl N-[(9S,11R)-14,20-dioxo-7-oxa-13,16,19,23-tetraazatetracyclo[19.3.1.1^2,6.0^9,13]hexacosa-1(25),2(26),3,5,21,23-hexaen-11-yl]carbamate], the MIC in test [3] is over 16 µg/mL; in test [4] (setting [5]), 4 µg/mL (≈ 8.07 µM); in test [4] (setting [6]), 2 to 4 µg/mL (≈ 4.04 to 8.07 µM); in test [4] (setting [7]) it was 2 µg/mL (≈ 4.04 µM); in test [4] (strain DSM 46320, read-out: MIC S. aureus DSM 46320), 4 µg/mL (≈ 8.07 µM); in test [4] (setting [8]), 8 µg/mL (≈ 16.1 µM).

Turning to `CN1CCC[C@H](NS(=O)(=O)C2CC2)C(=O)N2C[C@@H](NC(=O)Cc3ccc4ccccc4c3)C[C@H]2COc2ccccc2-c2cccc(c2)C1=O` [Ex. 21, N-[(10S,12S,16S)-16-[(cyclopropylsulfonyl)amino]-20-methyl-15,21-dioxo-8-oxa-14,20-diazatetracyclo[20.3.1.0^2,7.0^10,14]hexacosa-1(26),2,4,6,22,24-hexaen-12-yl]-2-(2-naphthyl)acetamide], the inhibition at 10 µM in test [1] (10 μM compound) was 75%.
